Source: ChEMBL document CHEMBL3507680, “University of Dundee, Gates Library screen for HepG2 cell viability”

Assay: Human HepG2 cell viability assay in 384 well format
Format: toxicity, cell-based
Set-up: dose 125 nL, time 70.5 hour; concentration not given beside the values
Settings: HepG2 cells, read-out: Inhibition

Compound	cytotoxicity at 70.5 h [%]
CN(C)C(=O)CN1CCO[C@H]2CN(Cc3ccoc3)C[C@H]21	-4.25
Cc1nn(C)c(C)c1C1COCCN1C(=O)CC(C)(C)C (stereo unspecified)	24.2
CN1CCOCC2(CCN(Cc3ccc[nH]3)CC2)C1	30
Cn1cc(CNC2CCCOc3c2ccc2ccccc32)cn1 (stereo unspecified)	2.1
O=c1[nH]c2nc(N3CCSCC3)ncc2c(=O)n1-c1ccc(F)cc1	-16.9
CCS(=O)(=O)N1CCCC2(CCCN2C(=O)c2cn(C)cn2)C1 (stereo unspecified)	-8.17
COc1cc(CNC2CCc3nc(C)nn3C2)cc2c1OCCO2 (stereo unspecified)	-9
CN(Cc1ccccc1NCc1cccnc1)C(=O)c1cccs1	-2.02
COCC(=O)N1CCC(Nc2ccnc3ccc(Cl)cc23)CC1	4.85
CN1CCN(Cc2cn3c(n2)CN(C2CCOCC2)CC3)CC1	-6.56
COc1ccc(NC(=O)N2CCCCC2c2ncc[nH]2)cc1 (stereo unspecified)	-7.7
Cc1cc(CN2CC[C@H]3C[C@H](c4nccs4)O[C@@H]3C2)no1	-15.6
O=C(NC1CCC1)[C@@H]1CCO[C@@H]2CCN(C3CCCC3)C[C@@H]21	1.69
COc1ccc(NC(=O)CSC(F)(F)F)cn1	9.73
CCOc1ccc(C(=O)N2CCCC2Cn2cc(C)cn2)cn1 (stereo unspecified)	-5.61
CCn1nc(C)c2nnn(CC(=O)Nc3cccc(C)c3)c(=O)c21	-10.1
CC(NC(=O)c1cccc(CCC(C)(C)O)c1)c1nnc(N)s1 (stereo unspecified)	30.7
CCCN(CC1CC1)C(=O)Nc1ccc(N2CCSCC2)cc1C	-8.14
CC(C)CN1CCC(NC(=O)c2ccc(F)cc2Cl)CC1	-2.96
CC(C)Cn1cnc(S(=O)(=O)NCCc2nnc3ccccn23)c1	15.7
CN(CCCC#N)C1CCCN(Cc2noc(C3CC3)n2)C1 (stereo unspecified)	9.15
CNCC(=O)Nc1ccc(-c2cnc(NCCS(C)(=O)=O)nc2)cc1	-0.605
CC(=O)N(CCc1ccccc1)CC(=O)Nc1ccccc1C#N	-1.29

Compound	cytotoxicity at 70.5 h [%]
CN(Cc1ccco1)C[C@H]1OC[C@@H]2CCN(Cc3cccs3)C[C@@H]21	-13.4
O=C(Cc1cnccn1)N1C[C@H]2CC[C@@H]1CN(Cc1cscn1)C2	-12.8
O=C1CCC2(CCCN(C(=O)c3ccc[nH]3)C2)CN1Cc1cccnc1 (stereo unspecified)	-3.97
COc1cc2cc(C)c(SCCN3CCCCC3)nc2cc1OC	4.15
O=C(c1ccnn1COc1ccc(Cl)cc1)N1CCOCC1	-6.03
Cc1cnn(CCNCc2cc(C)no2)c1	2.88
CC(Cn1cnc2cn(C)nc2c1=O)Oc1cccnc1 (stereo unspecified)	20.4
Cc1ccc(F)c(-n2nnc(C(=O)O)c2-c2ccncc2)c1	-5.82
O=C1NC2(CCN(Cc3cccnc3)CC2)CC1c1ccncc1 (stereo unspecified)	-10.6
CC(C)c1cc2c(s1)NC(c1ccccn1)NC2=O (stereo unspecified)	-3.28
Cc1cc(NC(=O)NCc2ccncc2)ccc1OC(C)C	-3.47
CN1CCN(CCCNC(=O)c2cc(Cl)c3c(c2)OCO3)CC1	-6.03
COc1cccc(CCC2CCCN(C(=O)c3cnccn3)C2)c1 (stereo unspecified)	-7.12
CCc1noc(C(C)N(C)CC(=O)Nc2ccc(Cl)c(C(F)(F)F)c2)n1 (stereo unspecified)	-97
O=C(CCN1CCC(c2cc3ccccc3[nH]2)CC1)N1CCOCC1	-1.25
OCCC1CN(c2ncnc3[nH]cnc23)CCN1Cc1cccs1 (stereo unspecified)	-3.01
CC(C)n1cnnc1CN(C)CC1CCOC1 (stereo unspecified)	-11.8
CCn1cc(CN2CCCC3(CCC(=O)N(CCC(C)C)C3)C2)cn1 (stereo unspecified)	-1.61
Cn1c(=O)c2cc(C(=O)NCc3ccncc3)ccc2n(C)c1=O	2.17
CN(Cc1cccc(C(N)=O)c1)c1ncc(C(N)=O)cc1Cl	-9.7
CC(NC(=O)c1ccc2c(c1)OCC(=O)N2)c1ccccc1F (stereo unspecified)	0.146
COCCN1C[C@@H]2[C@@H](OC)CCN(Cc3ccsc3)[C@@H]2C1	-2.68
Cc1ccccc1-c1noc(-c2ccc(N(C)C3CCOCC3)nc2)n1	-2.11

Compound	cytotoxicity at 70.5 h [%]
CCN(CCNC(=O)c1ccccc1OCCOC)C1CC1	54.8
N#Cc1ccc(OC[C@]23COC[C@H]2CN(Cc2ccoc2)C3)nc1	0.658
Cn1cnc(S(=O)(=O)NCCCN2CCOCC2)c1Cl	-14.4
COCc1nn(C(C)C)c2c1CCN(Cc1cccs1)C2	-6.03
N#Cc1ccc(CCC(=O)N2CCC(CN3CCOCC3)CC2)cc1	23.1
CCN1CCN(c2ccc(C(=O)NCCn3ccnc3)cc2F)CC1	-3.77
CC(C)n1ccnc1C1CCN(C(=O)c2ccc(SCCO)cc2)CC1	-8.09
CN(C)CCN1C[C@@H]2CN(C(=O)C3CC=CC3)C[C@@H]2C1=O	-10.8
Cc1cccnc1NC(=O)CC1(Cn2cnnn2)CCCCC1	-7.45
CNC(=O)[C@@]12CCCN(c3ncccn3)[C@@H]1CN(C(=O)NC(C)C)C2	34.2
CC1CCN(C(=O)[C@@H]2CC[C@@H]3[C@@H](CCN3c3ncc(F)cn3)O2)CC1	-2.26
CCc1ccc(CN(C)C(=O)C(c2ccccc2F)N(C)C)nc1 (stereo unspecified)	-7.7
Cc1cc(C)n(CC2CCCCN2CC(=O)NC2CCOCC2)n1 (stereo unspecified)	18.3
COc1ccc(Oc2nccnc2C2CCN(C(C)=O)CC2)cc1	-4.84
O=C(NCCNc1cc(N2CCCC2)cnn1)Nc1ccccc1F	-2.71
O=C1CC2(CCNCC2)C(=O)N1c1cccc(F)c1	-0.489
O=C1CC[C@H]2[C@H](CCN2c2ccccn2)N1CC1CCOCC1	-9.84
COCC(C)(C)NC(=O)CC(c1ccccc1)C(F)(F)F (stereo unspecified)	-15.6
CN1CCCC1CCNC(=O)Nc1ccccc1 (stereo unspecified)	-5
O=C(C1CCC1)N1CCC(c2ncc3c(n2)CCNC3)CC1	-6.1
Cc1cc(C)c(CNC(=O)NC2CCN(C(=O)C(C)C)CC2)c(C)c1	-10.6
CC(C)c1noc(CN(CCC2CCCCC2)CC(N)=O)n1	-3.41
CCc1nc(CN(C)C2CCN(CCc3cccs3)C2)no1 (stereo unspecified)	-6.05

Compound	cytotoxicity at 70.5 h [%]
CCOc1ccc(C(=O)N(Cc2cnn(C)c2)C(C)C)cc1OCC	-3.25
CC(C)c1cnc(CN(C)C2CCN(CCc3ccccn3)C2)o1 (stereo unspecified)	13.1
CCOc1ccnc(N2CCN(C(=O)c3ccc(OC)cc3)CC2)n1	-12.5
OCC1CCCN1c1cc(NCc2ccsc2)ncn1 (stereo unspecified)	1.84
CC(NC(=O)Cn1cccn1)c1cccnc1 (stereo unspecified)	-4.88
COc1ccc2c(c1)Cc1c-2nc(N)c(C#N)c1C1CCOC1 (stereo unspecified)	2.5
COc1ccc(Cc2nc3c([nH]2)CC(C)(C)CNC3=O)cc1OC	-8.64
CCCOc1cccc(NC(=O)NC2CCc3nc(C)nn3C2)c1 (stereo unspecified)	-5.39
CC1=N[C@@]2(CC[C@@H]3CN(C(=O)NCc4cccc(F)c4)C[C@@H]32)C(=O)N1	-3.91
CCNc1ccnc(NCc2cn3nc(C)sc3n2)n1	-15.7
Clc1ccccc1CN1CCc2nc(C3CCCCN3)ncc2C1 (stereo unspecified)	-18.6
CCc1noc(C)c1C(=O)N1CCC2(CCCN(CC(C)(C)C)C2=O)C1 (stereo unspecified)	-5.92
O=C(NCc1cc[nH]n1)N1CCCC(N2CCCC2)C1 (stereo unspecified)	-4.82
O=C(N[C@H]1COC[C@@H]1N1CCCC1)c1c[nH]nc1C1CCCCC1	-4.22
Cc1ccc(C)c(Oc2cc(-n3nc(C)c(C#N)c3N)nc(C)n2)c1	-6.07
CCc1ccc(C(=O)Nc2ccc3c(c2)N(C)CCN(C)C3)o1	-8.89
Cc1cccc(NC(=O)CNC(=O)c2ccccc2F)c1	4.02
Cc1noc([C@]23COC[C@H]2CN(S(=O)(=O)C2CC2)C3)n1	-1.24
COCCN1CCC(CNC(=O)C2(c3cccc(Cl)c3)CC2)C1 (stereo unspecified)	-0.451
Cn1cc(Cl)cc1C(=O)N1CCCN(Cc2cccs2)CC1	4.57
O=C(N1CCCO1)[C@@]12CCO[C@@H]1CCN(Cc1cccs1)C2	34.4
Cn1cnc2c1C(COCC1CC1)CN(C(=O)c1ccsc1)C2 (stereo unspecified)	6.4
O=S(=O)(C1CC1)N1CCO[C@@H]2CN(Cc3cccs3)C[C@@H]2C1	-5.47

Compound	cytotoxicity at 70.5 h [%]
CN(CC(=O)N1CCCC1Cn1cccn1)Cc1ccccc1 (stereo unspecified)	-17.4
CC(C)CN1CCC2(COCc3cnc(-c4ccccc4)nc32)C1 (stereo unspecified)	-3.09
COC(=O)C(NC(=O)c1ccc(C)cc1C)c1cccnc1 (stereo unspecified)	-7.04
O=C(NCC1CCC2(CC1)OCCO2)c1cccc(-n2cccn2)c1	19.6
Cc1nc(C)n(CC2CN(Cc3nccs3)Cc3nccn3C2)n1 (stereo unspecified)	-2.68
CC(=O)NCC(=O)N1CCc2c(CNc3ncccn3)cncc2C1	-2.19
Cc1nc(CNC(=O)NCC(O)c2ccccc2)cs1 (stereo unspecified)	-2.52
O=S(=O)(N[C@H]1CC[C@H]1NC1Cc2ccccc2C1)c1cccnc1	-6.2
COc1cccc(CNC(=O)c2nc3c(o2)CN(C(=O)N(C)C)C3)c1	-8.42
Cc1ccc(C(=O)N2C[C@@H]3CCCO[C@@H]3[C@H](N3CCCC3)C2)cn1	0.948
CCN(Cc1ccc2c(c1)OCO2)S(=O)(=O)N(C)C(C)C	-1.76
Cn1c(CN2CCN(c3cccnc3)CC2)cc2ccccc21	-4.28
COCC(=O)N1CCC2(CC1)COc1ccccc1S(=O)(=O)N(C)C2	0.748
COCCN1C[C@H]2CC[C@@H]1CN(C(=O)c1ccc(Cl)cc1)C2	-6
Cc1ccoc1C(=O)N1CCO[C@H]2[C@H](OCCN(C)C)CC[C@@H]21	-12.4
COc1ncccc1CNCc1c(C(C)C)nn(C)c1N(C)C	-1.75
CC(Cc1ccccc1F)NC(=O)CCc1nc(-c2nnc[nH]2)no1 (stereo unspecified)	-4.06
O=S(=O)(c1cccs1)N1CC[C@H]2[C@H]1CCN2c1ncccn1	-4.67
CCCN(CC1COc2ccccc2O1)C(=O)CCn1cncn1 (stereo unspecified)	-1.87
